PubChem BioAssay AID1628 (Sanford-Burnham Center for Chemical Genomics, 2009)
Several values for one entry are separate records, joined by “and”; a condition that tells them apart may be missing. Equal values may be shown once.

Test system: MIN6 insulin promoter GFP reporter, high-content imaging
Assay: insulin promoter down-regulators in MIN6 cells, imaging, high-content screening, mouse beta cells (AID 1628);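 further: potency for lowering insulin promoter GFP signal so compounds are inhibitors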

Structure (SMILES): CN(C)c1ccnc2c[cH-]cc12.[Fe].c1ccc(-[c-]2[c-](-c3ccccc3)[c-](-c3ccccc3)[c-](-c3ccccc3)[c-]2-c2ccccc2)cc1 (stereo unspecified)
- IC50: 2630 nM and 1620 nM
